The test system of assay [1] is Human pancreatic cancer cell line Panc-1. Nature of the assay: cells. It is filed as cell-based. The note with it: for IC50: Homo sapiens, read-out: IC50 and 95% confidence limit, anti-proliferative effect on Panc-1; for anti-proliferative effect on Panc-1 (in words): pancreatic cancer. The protocol: (§1) Cell lines: Human pancreatic cancer cell line Panc-1, human colorectal cancer cell line HT29, human lung cancer cell line NCI-H460 and human breast cancer cell line MCF7; the medium: s DMEM (Gibco BRL), containing 10% fetal calf serum (Gibco BRL) and 2 mM L-glutamine (Gibco BRL).
(§2) Test samples: example compounds 7, 15, 82, 89, 116 and 135. The samples were dissolved in dimethyl sulfoxide (DMSO, Sigma, United States) and medium was added to the final concentration of 0.5%. Cyclophosphamide ware as positive control (Aldrich, United States, purity>96%).
(§3) General Method: cells were digested with trypsin and dispersed into single cells in the medium containing penicillin (25 U/ml) and streptomycin (25 μg/mL). The cells were seeded in 96-well culture plates (Corning Incorporated), at 37° C., with 5% CO2 present for 24 hours. The culture medium was removed, […] test compounds were added, cultured for 48 hours. Culture medium was removed and […] (MTT, USA Sigma products) was added. The result was assayed by SK601-based microplate reader (Japan Seikagaku company's products), 570 nm/630 nm optical density (OD). Cell viability determined by the formula: (Experimental group OD/control OD)×100%; CTX and the positive control subjects treated in the same material simultaneously.

Assay [2] deals with human breast cancer cell line MCF7. Nature of the assay: cells. It is filed as cell-based. The protocol:
as §1, §2, §3

Assay [3] deals with human colorectal cancer cell line HT29. Nature of the assay: cells. It is filed as cell-based. The settings on record: for IC50: Homo sapiens; for anti-proliferative effect on HT29 (in words): colorectal cancer. The procedure:
as §1, §2, §3

In assay [4] the test system is human lung cancer cell line NCI-H460. Nature of the assay: cells. It is filed as cell-based. The note with it: for IC50: Homo sapiens; for inhibitory effect on NCI-H460 cells (in words): lung cancer. The protocol: as §1, §2, §3
The subject of a further assay is mice sarcoma S180. Nature of the assay: Growth inhibition of S180 sarcoma in mice. It is filed as in vivo, Kunming healthy mice. The note with it: for in-vivo anti-tumor efficacy, statistical significance (in words): S180 sarcoma in mice, doses and routes of Table 3.
The mark [5] stands for this setting: Mus musculus, S-180, mice, iv, read-out: Inhibition rate (%) S180 sarcoma.
Where [6] appears, read: MCF7, MTT, 48 hours, unit inferred, read-out: IC50 with 95% confidence limits, MCF7 cells.
The mark [7] stands for this setting: MCF7, MTT, cultured for 48 hours, value (95% confidence limit), Table 2, read-out: IC50 Breast cancer MCF7.
[8] abbreviates: HT-29, MTT, 48 hours, read-out: IC50 and 95% confidence limit, anti-proliferative effect on HT29.
Setting [9] is: HT-29, MTT, cultured for 48 hours, value (95% confidence limit), Table 2, read-out: IC50 Colorectal cancer HT-29.
Setting [10] is: NCI-H460, MTT, 48 hours, unit inferred, read-out: IC50 and 95% confidence limits, NCI-H460 cells.
[11] abbreviates: NCI-H460, MTT, cultured for 48 hours, value (95% confidence limit), Table 2, read-out: IC50 Lung cancer NCI-H460.

Values after ≈ are worked out from the molar mass of the structure shown. “Also recorded” adds a separate entry of the source. Read-outs that look alike come from different tables or passages of the source. Some results are limits rather than exact numbers.

What is called IC50 is the point on the concentration scale where inhibition reaches its midpoint. Consider `CCOC(=O)c1nn(O)c2c(=O)n(C3OC(COC(C(=O)O)P(NC(C)C)OCC#N)C(O)C3O)nnc12` (centres unmarked) [Example 116, 2-((cyanomethoxy)(isopropylamino)phosphino)-2-((5-(7-(ethoxycarbonyl)-5-hydroxy-4-oxo-4,5-dihydro-3H-pyrazolo[4,3-d][1,2,3]triazin-3-yl)-3,4-dihydroxytetrahydrofuran-2-yl)methoxy)acetic acid], for which the IC50 was 2.19 µg/mL (≈ 3.91 µM) in assay [1] (PANC-1, 48 h); 12.9 µM in assay [2] (MCF7, 48 h, read-out: IC50 Breast cancer MCF7); 12.9 µM in assay [2] (MCF7, 48 h, read-out: IC50 with 95% confidence limits, MCF7 cells); 2.68 µM in assay [3] (HT-29, 48 h, read-out: IC50 Colorectal cancer HT-29); 2.68 µg/mL in assay [3] (HT-29, 48 h, read-out: IC50 and 95% confidence limit, anti-proliferative effect on HT29); 4.62 µM in assay [4] (NCI-H460, 48 h, read-out: IC50 Lung cancer NCI-H460). In addition, in assay [4] (NCI-H460, 48 h, read-out: IC50 and 95% confidence limits, NCI-H460 cells), the IC50 was determined as 4.62 µM. In addition, in assay [1], the “anti-proliferative effect on Panc-1 (in words)” value is “a strong anti-proliferative effect, better than CTX; also recorded: higher inhibition activity”. For the same compound, the “anti-proliferative effect on HT29 (in words)” value in assay [3] is listed as “the strongest; also recorded: higher inhibition activity”. The “inhibitory effect on NCI-H460 cells (in words)” value in assay [4] is recorded as “more sensitive to NCI-H460 cells”. Moreover, in the assay on mice sarcoma S180 (setting [5]), the inhibition in vivo at 50 mg/kg is less than 40%. Moreover, the “in-vivo anti-tumor efficacy, statistical significance (in words)” value with mice sarcoma S180 is listed as “statistically significant”.

Turning to `Nc1nn(O)c2c(=O)n(C3OC(CO)C(O)C3O)nnc12` (centres unmarked) [Example 15, 7-amino-3-(3,4-dihydroxy-5-(hydroxymethyl)tetrahydrofuran-2-yl)-5-hydroxy-3H-pyrazolo[4,3-d][1,2,3]triazin-4(5H)-one], the IC50 in assay [1] (PANC-1, MTT, 48 hours) was 2.68 µg/mL (≈ 8.93 µM); in assay [2] (setting [6]), 2.73 µM; in assay [2] (setting [7]), 2.73 µM; in assay [3] (setting [8]) it was 3.92 µg/mL; in assay [3] (setting [9]), 3.92 µM; in assay [4] (setting [10]) it was 22 µM. The IC50 in assay [4] (setting [11]) turned out to be 22 µM. In addition, the “anti-proliferative effect on Panc-1 (in words)” value in assay [1] is listed as “higher inhibition activity”. Besides, the “anti-proliferative effect on HT29 (in words)” value in assay [3] is “close values to CTX; also recorded: higher inhibition activity”. In addition, in assay [4], the “inhibitory effect on NCI-H460 cells (in words)” value was “more sensitive to NCI-H460 cells”. Besides, the inhibition in vivo at 50 mg/kg in the assay on mice sarcoma S180 (setting [5]) is less than 40%. Besides, in the assay with mice sarcoma S180, the “in-vivo anti-tumor efficacy, statistical significance (in words)” value is “statistically significant”.

Regarding `CCCc1nn(C)c2c(=O)n(C3OC(COP(=O)(O)OP(=O)(O)OP(=O)(O)O)C(O)C3O)nnc12` (centres unmarked) [Example 135, (3,4-dihydroxy-5-(5-methyl-4-oxo-7-propyl-4,5-dihydro-3H-pyrazolo[4,3-d][1,2,3]triazin-3-yl)tetrahydrofuran-2-yl)methyl tetrahydrogen triphosphate], the IC50 in assay [1] (PANC-1, MTT, 48 hours) came out at 53.5 µg/mL; in assay [2] (setting [6]), 5.7 µM; in assay [2] (setting [7]), 5.7 µM; in assay [3] (setting [8]), 18 µg/mL; in assay [3] (setting [9]) it was 18 µM; in assay [4] (setting [10]), 14 µM. Also, the IC50 in assay [4] (setting [11]) is 14 µM. The “anti-proliferative effect on HT29 (in words)” value in assay [3] was “relatively weak”. For the same compound, the inhibition in vivo at 25 mg/kg with mice sarcoma S180 (Mus musculus, S-180, mice, iv, 25 mg/kg, read-out: Inhibition rate (%) S180 sarcoma) was less than 40%. Also, the “in-vivo anti-tumor efficacy, statistical significance (in words)” value in the assay with mice sarcoma S180 is given as “statistically significant”.

On to `Nc1nn(O)c2c(=O)n(C3CSC(CO)O3)nnc12` (centres unmarked) [Example 89, 7-amino-5-hydroxy-3-(2-(hydroxymethyl)-1,3-oxathiolan-5-yl)-3H-pyrazolo[4,3-d][1,2,3]triazin-4(5H)-one], for which the IC50 was 10 µg/mL (≈ 35 µM) in assay [1] (PANC-1, MTT, 48 hours); 67.5 µM in assay [2] (setting [6]); 67.5 µM in assay [2] (setting [7]); 13.1 µg/mL in assay [3] (setting [8]); 10.2 µM in assay [3] (setting [9]); 8.52 µM in assay [4] (setting [10]). For the same compound, in assay [4] (setting [11]), the IC50 was 8.52 µM. Further, the “anti-proliferative effect on HT29 (in words)” value in assay [3] is listed as “relatively weak”. Moreover, in the assay on mice sarcoma S180 (Mus musculus, S-180, mice, ip, 100 mg/kg, read-out: Inhibition rate (%) S180 sarcoma), the inhibition in vivo at 100 mg/kg was less than 40%. Also, the “in-vivo anti-tumor efficacy, statistical significance (in words)” value with mice sarcoma S180 was “statistically significant”.

Consider `CCCc1nn(C(C(=O)O)P(=O)(OCC)OCC)c2c(=O)n(C3CCC(CO)O3)nnc12` (centres unmarked) [Example 82, 2-(diethoxyphosphoryl)-2-(3-(5-(hydroxymethyl)tetrahydrofuran-2-yl)-4-oxo-7-propyl-3H-pyrazolo[4,3-d][1,2,3]triazin-5(4H)-yl)acetic acid], for which the IC50 worked out at 53 µg/mL (≈ 112 µM) in assay [1] (PANC-1, MTT, 48 hours); 34.3 µM in assay [2] (setting [6]); 34.3 µM in assay [2] (setting [7]); 10.2 µg/mL in assay [3] (setting [8]); 13.1 µM in assay [3] (setting [9]); 60.5 µM in assay [4] (setting [10]). Moreover, the IC50 in assay [4] (setting [11]) stood at 60.5 µM. Moreover, in assay [3], the “anti-proliferative effect on HT29 (in words)” value is “relatively weak”. In addition, the inhibition in vivo at 15 mg/kg in the assay with mice sarcoma S180 (Mus musculus, S-180, mice, iv, 15 mg/kg, read-out: Inhibition rate (%) S180 sarcoma) was less than 20%.
